Source: patent US20130131140A1, “TREATMENT OF DIABETES AND DISORDERS ASSOCIATED WITH VISCERAL OBESITY WITH INHIBITORS OF HUMAN ARACHIDONATE 12 LIPOXYGENASE AND ARACHIDONATE 15-LIPOXYGENASE” (priority 2010, published 2013)
Entries after “also recorded” stand apart in the source; their conditions may differ.

What was measured:
[1] = system: human islets; test: Glucose-stimulated insulin secretion in human islets; type: cell-based; settings: for effect on insulin secretion: human islets, 1 and 100 nM, 4 hours incubation, then 1 hour in 11 mM glucose
Protocol: In other studies, human islets were cultured in CMRL medium-1066 (Invitrogen) with 5% fetal bovine serum overnight and then transitioned to serum free Kreb-Ringer buffer at 37° C., and islets were incubated with and without HETEs in 3 and 18 mM glucose for 4 hours, as shown in FIG. 12. The supernatant was collected after each treatment, and insulin concentration in the supernatant was measured by an enzyme immunoassay method (Mercodia, Uppsala, Sweden) with a mouse or human insulin standard. The intraassay variation was less than 4%, and the interassay variation was less than 10%.
LOs catalyze the oxidation of linoleic acid and arachidonic acid, generating products of varying stability. […] Referring to FIGS. 13A and 13B, 12(S)-HETE, 15(S)-HETE, 12-HPETE, and 12-RHETE were tested at 1 and 100 nM doses to examine their effects on insulin secretion. Human islets were incubated with the various HETEs for 4 hours and then assessed for insulin secretion during a 1-hour period incubated in 11 mM glucose. Also confirmed were the effects of 12(S)-HETE on basal (3 mM) and stimulated (18 mM) glucose concentration.

[2] = system: human islets; settings: 50 μm LSF overnight pretreatment, then 1 nm 12(S)-HETE 4 hours
Protocol: Viability was assessed by detecting 3-(4,5-dimethylthiazol-2-yl)-2,5-diphenyltetrazolium bromide (MTT; Sigma-Aldrich) metabolism as previously described (17).
Human islets from four different human donors were pretreated with 50 μm LSF overnight or untreated as indicated. Islets were then treated with 1 nm 12(S)-HETE for 4 hours and incubated in 11 mm glucose for 1 hour to measure islet metabolic activity by MTT assay (A) or insulin secretion (B).

[3] = system: human islets; test: Cell death by propidium iodide (PI) fluorescence; type: cell-based; settings: for cell death, PI staining intensity: overnight incubation
Protocol: Islets were treated with 20 μg/ml of propidium iodide (PI) and incubated for 10 minutes. Islets were imaged once under brightfield illumination to determine the islet borders and imaged again to measure PI fluorescence using 535-nm excitation and 617-nm emission as previously reported (11). Islets were circled, and the mean PI fluorescence intensity was determined for each islet individually. Three separate trials from three donors were conducted.
Islet cell death was evaluated by PI staining in islets after overnight incubation with 1, 10, or 100 nM 12(S)-HETE. […] This finding is consistent with dose-response measures of cell death previously observed with mouse islets (8).

[4] = system: p38-MAPK; test: Western immunoblot of phosphorylated p38-MAPK in human islets; type: cell-based
Source text: (§1) Equal amounts of whole islet cell protein extracts were separated on polyacrylamide-sodium dodecyl sulfate gels and transferred to polyvinylidene difluoride transfer membranes (GE Healthcare, Buckinghamshire, UK). The blots were probed with primary antibodies, and bands were detected using horseradish […] secondary antibodies (GE Healthcare UK Limited, Chalfont, UK) and the enhanced chemiluminescence detection system (GE Healthcare).
(§2) Rabbit PAb anti-p38-MAPK (pTpY180/182) and anti-c-Jun N-terminal kinase (JNK)-1 and -2 (pTpY183/185) were purchased from Alpha BioSource/Invitrogen and were used at a 1:500 dilution. Mouse monoclonal anti-p38-MAPK (A-12) and rabbit polyclonal anti-actin (1-19) were purchased from Santa Cruz Biotechnology (Santa Cruz, Calif.). p38-MAPK was used at a 1:500 dilution, and actin was used at a 1:2500 dilution. Rabbit anti-12-LO (see Ref. 8) was used at a 1:1000 dilution.
(§3) To determine whether treating islets with 12(S)-HETE would affect the activity of two well-known stress-mediated pathways linked to β-cell damage, p38-MAPK and JNK in human islets, were investigated. […] The results are presented as the means±SD. *, P<0.05 compared with the corresponding control; #, P<0.05 compared with the cytokine treatment group.

[5] = system: JNK-1 and -2; test: Western immunoblot of phosphorylated JNK in human islets; type: cell-based; settings: human islets treated with 12(S)-HETE
Source text: as §1, §2, §3

[6] = human islets treated with 12(S)-HETE

C[C@@H](O)CCCCn1c(=O)c2c(ncn2C)n(C)c1=O [LSF, Lisofylline]
reversal of 12(S)-HETE-induced reduction in insulin secretion ([1]; 50 μm LSF overnight pretreatment, then 1 nm 12(S)-HETE 4 hours, 11 mm glucose 1 hour): reversed
reversal of 12(S)-HETE effects on metabolic activity (MTT assay) [2]: partially reversed

CCCCC/C=C\C[C@@H](O)/C=C/C=C\C/C=C\CCCC(=O)O [12(S)-HETE, 12-hydroxyeicosatetraenoic acid]
effect on insulin secretion [1]: consistently reduced; also recorded: most substantial reduction in insulin secretion
increase in cell death ([3]; 100 nM): 50%
cell death, PI staining intensity ([3]; 100 nM): significant increase in cell death
cell death, PI staining intensity ([3]; 1 or 10 nM): no significant increase in cell death
phosphorylated p38 (pp38) protein activity [4, 6]: increased phosphorylated p38
total p38-MAPK (p38) [4, 6]: without any change
phosphorylated JNK (ppJNK1 and -2) activity [5]: not affected

N#CC(=Cc1ccc(O)c(O)c1)C(=O)OCC=Cc1ccccc1 [CDC, cinnamyl-3,4-dihydroxy-α-cyanocinnamate]
cytokine-induced pp38-MAPK activity ([4]; human islets pretreated with CDC, cytokines TNF-α, IFN-γ, IL-1β): significantly reduced; also recorded: blocked

CCCCC/C=C\CC(/C=C/C=C\C/C=C\CCCC(=O)O)OO (stereo not drawn) [12-HPETE, 12-hydroperoxyeicosatetraenoic acid]
effect on insulin secretion [1]: consistently reduced
effect on insulin secretion ([1]; listed as 12(S)HPETE): most substantial reduction in insulin secretion
